Measurements: article PMC10252614 (International Journal of Molecular Sciences, 2023)

Experiments:
[1] = target: T1, hMAO-B (Homo sapiens, UniProt P27338); assay: hMAO-B inhibition mechanism: dialysis reversibility and kinetics; format: biochemical; details: for mode of hMAO-B inhibition: non-linear regression according to Michaelis–Menten
T1 construct: purchased Merck (Prague, Czech Republic)
T1 sequence (P27338 1-520): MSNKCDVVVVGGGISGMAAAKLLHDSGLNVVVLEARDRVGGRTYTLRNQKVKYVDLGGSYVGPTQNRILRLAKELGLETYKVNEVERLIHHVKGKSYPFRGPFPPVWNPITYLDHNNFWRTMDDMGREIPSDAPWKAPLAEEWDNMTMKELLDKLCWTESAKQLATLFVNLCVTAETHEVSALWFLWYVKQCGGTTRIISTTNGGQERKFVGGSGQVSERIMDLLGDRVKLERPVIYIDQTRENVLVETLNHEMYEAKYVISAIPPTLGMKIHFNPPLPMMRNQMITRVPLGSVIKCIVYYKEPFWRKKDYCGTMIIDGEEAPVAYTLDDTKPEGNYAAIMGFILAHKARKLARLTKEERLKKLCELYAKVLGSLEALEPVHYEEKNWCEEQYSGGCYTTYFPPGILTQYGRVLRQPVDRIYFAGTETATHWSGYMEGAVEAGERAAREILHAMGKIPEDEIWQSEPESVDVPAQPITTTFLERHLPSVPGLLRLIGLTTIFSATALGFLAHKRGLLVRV
Experimental: (§1) The MAOs were subsequently incubated with selected compounds at different concentrations and evaluated by non-linear regression according to Michaelis–Menten (Figure 5).
(§2) Inhibition mechanism was determined by non-linear regression and the double reciprocal method by Lineweaver–Burk using GraphPad Prism 8.2 software. […] The recovery of enzyme activity was determined using the above-mentioned protocol.

[2] = target: T2, hMAO-A (Homo sapiens, UniProt P21397); assay: hMAO-A inhibition mechanism: dialysis reversibility and kinetics; format: biochemical; details: non-linear regression according to Michaelis–Menten
T2 construct: purchased Merck (Prague, Czech Republic)
T2 sequence (P21397 1-527): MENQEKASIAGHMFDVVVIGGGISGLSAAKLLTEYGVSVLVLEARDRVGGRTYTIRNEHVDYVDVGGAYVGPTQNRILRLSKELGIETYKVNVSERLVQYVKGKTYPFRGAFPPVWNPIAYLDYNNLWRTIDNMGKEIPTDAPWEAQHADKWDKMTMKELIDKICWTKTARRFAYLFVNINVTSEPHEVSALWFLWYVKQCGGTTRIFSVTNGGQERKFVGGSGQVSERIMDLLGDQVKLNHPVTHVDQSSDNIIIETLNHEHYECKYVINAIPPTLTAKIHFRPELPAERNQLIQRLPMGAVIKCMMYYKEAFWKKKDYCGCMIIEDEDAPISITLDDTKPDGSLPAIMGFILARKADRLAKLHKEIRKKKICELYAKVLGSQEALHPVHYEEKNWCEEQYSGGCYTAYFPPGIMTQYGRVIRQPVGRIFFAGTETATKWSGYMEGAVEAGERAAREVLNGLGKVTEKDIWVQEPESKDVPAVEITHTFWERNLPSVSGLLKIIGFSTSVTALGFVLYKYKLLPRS
Experimental: as §1, §2

[3] = system: SH-SY5Y cells; assay: nuclear condensation and fragmentation, Hoechst 33258 assay; format: cell-based, human; details: 100 µM, 24 h
Experimental: (§3) Thus, SH-SY5Y cells were incubated with II-6h and III-6a (10 and 100 µM) for 24 h. After the treatment, dehydrogenase activity, glutathione levels, nuclear condensation and fragmentation, and ATP levels were measured (Figure 7). […] The decrease in dehydrogenase activity was found in cells treated with 100 µM II-6h (p < 0.001).
To measure nuclear condensation and fragmentation in intact cells, we used fluorescence dye Hoechst 33258 (H33258, 1 mg/mL; Merck, USA). After cell treatment with II-6h (10–100 µM) and III-6a (10–100 µM), the cells grown in a 96-well plate were centrifuged (5 min; 8000g; RT). Then, 70 µL of a supernatant was replaced with 70 µL of PBS 1× and 10 µL of H33258 solution was added to a well. The final concentrations of H33258 in a well was 2 µg/mL. Then, the cells were incubated with H33258 for 5 min and spectrofluorometric measurement was performed at Ex/Em = 352/461 nm using SPARK microplate reader (Tecan, Austria) while incubated at 37 °C. The samples were measured at least in triplicates. After background subtraction, the fluorescence signal was presented in RFU as mean ± SEM.

[4] = system: SH-SY5Y cells; assay: intracellular ATP, luciferase luminescence assay; format: cell-based, human; details: 100 µM, 24 h
Experimental: as §3
The quantification of intracellular ATP was performed using luciferase luminescence assay. After cell treatment with II-6h and III-6a (10–100 µM), the culture medium was replaced with 100 µL of cold water for cell lysis, incubated for 5 min and centrifuged (4800× g; 5 min; 4 °C). To detect intracellular ATP concentration, 90 µL of the reaction solution was added to 10 µL of a lysate. The reaction solution included 20× reaction buffer (500 mM Tricine buffer, pH 7.8; 10 mM MgSO4, 2 mM Na2EDTA), 5 mg/mL luciferase; 10 mM D-luciferin; 0.1 M DTT and dH2O. Luminometric measurement was performed at Em = 550 nm using SPARK microplate reader (Tecan, Grödig, Austria). The intracellular ATP levels were expressed as the percentage of total ATP level relative to that in the control cells (control = 100%) as mean ± SEM.

## C#CCN(C)c1nc(NC2CCCCC2)c2ccccc2n1 [I-6h, N4-cyclohexyl-N2-methyl-N2-(prop-2-yn-1-yl)quinazoline-2,4-diamine]
[1]
  mode of hMAO-B inhibition: mixed mode inhibition
[2]
  mode of hMAO-A inhibition: mixed mode inhibition

## C#CCN(C)c1nc(NC2CCCCC2)c2ccc(Cl)cc2n1 [II-6h, 7-chloro-N4-cyclohexyl-N2-methyl-N2-(prop-2-yn-1-yl)quinazoline-2,4-diamine]
[3]
  nuclear condensation and fragmentation (in words): significant increase
[1]
  mode of hMAO-B inhibition: mixed mode inhibition
[1]; recovery of enzyme activity after dialysis
  reversible/irreversible inhibitory action towards hMAO-B: only a partial recovery
[4]
  intracellular ATP levels (in words): partial exhaustion of ATP

## C#CCN(C)c1nc(N)c2cc(OC)ccc2n1 [III-6a, 6-methoxy-N2-methyl-N2-(prop-2-yn-1-yl)quinazoline-2,4-diamine]
[3]
  nuclear condensation and fragmentation (in words): significant increase
[2]
  mode of hMAO-A inhibition: mixed mode inhibition
